Laboratory results from patent US8710179B2, “Compositions and methods for concentrating and depleting microorganisms” (priority 2006, dated 2014).
In brackets after ≈: the same amount, converted by molar mass. Where two headings read alike, the source gives them in different places.

Legend:
E. coli [1] = assay: Bacteria capture assay with polymer-loaded resin beads (incl. kinetic studies); format: binding, Escherichia coli ATCC 35218; conditions: for Bound E. coli (CFU/mg resin): polymer-loaded resin beads, 30 minutes incubation
Description: Various concentrations of bacteria in 500 μl luria bertani broth (LB) were shaken at room temperature in the presence of deprotected polymer-loaded beads (1.8 mg of polymer per sample) or protected polymer-loaded and unloaded beads as a control experiment in a centrifuge tube equipped with a 10 μm cutoff membrane (Whatman polypropylene mesh VectaSpin Micro). After 30 minutes incubation the samples were centrifuged at 21,000×g for 5 minutes to separate beads from unbound bacteria and further analyzed as follows.
(§1) To assess bacterial binding to the beads, filtrates were subjected to serial 10 fold dilutions and plated on LB agar plates. Cell counts were determined using the drop plate method (three 20 μl drops onto LB agar plates) after overnight incubation at 37° C. For the viability study, resins were spread directly on LB agar plates and incubated similarly. For kinetic studies, resins were incubated with 1×10^6 CFU/ml E. coli in LB for up to 15 minutes and filtered after the indicated time periods then plated for CFU count.
“Bound E. coli (CFU/mg resin)” represents the capturing capacity of bacterial binding per one milligram of polymer-loaded resin beads as assessed after 30 minutes incubation using the capture assay as presented herein (column 9 in Table 3).

S. aureus = format: cell-based
From the text: (§2) “MIC (μM)” represents the minimal inhibitory concentration of each tested polymer in μM for each bacterial strain, measured as described previously (columns 5-8 in Table 3); For bacterial strains, “Ec” represents E. coli; “Pa” represents P. aeruginosa; “Sa” represents S. aureus; and “Bc” represents B. cereus; and […]

E. coli [2] = format: cell-based
From the text: as §2

P. aeruginosa = format: cell-based
From the text: as §2

B. cereus = format: cell-based
From the text: as §2

[3] = Hydrophobicity estimation by RP-HPLC (percent acetonitrile at elution); format: physicochemical; conditions: RP-HPLC C18, linear acetonitrile gradient 1% per minute
From the text: In order to estimate the hydrophobicity of each polymer, the polymer was eluted with a linear gradient of acetonitrile (1% per minute) on an HPLC reversed-phase C18 column, and the percent of acetonitrile at which the polymer was eluted was used for hydrophobicity estimation (see, “ACN (%)” in Table 3 below).
“ACN (%)” represents the percent of acetonitrile in the RP-HPLC gradient mobile phase at which the polymer was eluted and which corresponds to the estimated hydrophobicity of the polymer (column 4 in Table 3);

GFP-expressing E. coli = assay: Viability of polymer-captured bacteria, propidium iodide staining
Description: To establish the viability of polymer-captured bacteria, samples of polymer-captured GFP-expressing bacteria were incubated for 15 minutes at room temperature in a solution of 1 ml propidium iodide (Invitrogen, USA) in PBS (final concentration 0.06 mM), and thereafter centrifuged/washed in PBS and examined under a confocal fluorescent microscope using emission suitable for GFP and propidium iodide (excitation at 490 nm emission at 620 nm).

[4] = Regeneration and stability of polymer-loaded beads (HPLC and MS after cleavage); format: physicochemical
From the text: To verify their stability and the regeneration thereof, polymer-loaded resin beads were submitted to multiple cycles of bacterial binding followed by their release with 70% ethanol. To assess the potential polymer degradation, the polymer was cleaved from the resin, analyzed by HPLC and identified by mass spectrometry.
Polymer-loaded beads were exposed to 10 consecutive cycles of bacterial binding and release with 70% ethanol, and were submitted to a cleavage reaction. The cleaved polymers were analyzed by HPLC and mass spectrometry before and after the repetitive cycles. The HPLC chromatograms were obtained over […] elution using a 1% gradient of acetonitrile in water (30% to 60%), and the fraction containing the polymer was subjected to mass spectrometry analysis.

bacteria = assay: Antibacterial activity (MIC) of the resin-free polymer, strain not given; format: cell-based
From the text: as §2

E. coli [5] = format: cell-based; remark: listed apart in the source
Description: as §1
The non-cytotoxicity of the beads-bound polymers was assessed by the viability of the polymer-captured bacteria. E. coli was incubated with beads-bound polymers (10^6 CFU/ml/mg resin), and after filtration, samples of the resins and the filtrates were plated on LB-agar individually.
FIG. 6 presents a series of images of LB-agar plates, showing the viability of the captured E. coli cells (1×10^6 CFU/ml) which were incubated for 30 minutes with deprotected (FIGS. 6A1 and 6A2) and Boc-protected (FIGS. 6B1 and 6B2) K(NC12K)7NH2-loaded resin beads, wherein FIGS. 6A1 and 6B1 show the plates of the plated filtrates and FIGS. 6A2 and 6B2 show the plates of filtered and plated beads.

E. coli [6] = assay: Bacterial binding assay by real-time SPR on polymer-coated chip; conditions: 10^6 CFU/ml E. coli
Description: Purified resin-free polymers were immobilized onto the CM5 sensor chip (BIAcore, Uppsala, Sweden) via the terminal carboxyl group using 2-(2-pyridinyldithio)ethaneamine (PDEA). Carboxyl activation was achieved as follows. Morpholino-ethanesulfonic acid (MES buffer, 0.1 ml of 0.1 M) at pH 5.0 was used to solubilize 0.1 mg of the polymer. The solution was mixed with PDEA to final concentration of 22 mM and ethyl-3-(3-dimethylaminopropyl)-carbodiimide (EDC) to final concentration of 13 mM, incubated for 1 hour on ice and then placed in a dialysis tube (floating in buffer) to remove the excess reagents. In parallel, a 1:1 solution (20 μl) of EDC (0.4 M 1-ethyl-3-(3-dimethylaminopropyl)-carbodiimide in water):NHS (0.1 M N-hydroxysuccinimide in water) was injected at a flow rate of 10 μl/minute, to activate the chip surface. […]
Bacterial binding to the polymer was determined by surface plasmon resonance (SPR) using the optical biosensor system BIAcore 2000 (BIAcore, Uppsala, Sweden). […]
For real-time monitoring of bacterial capture the present inventors have developed a model system based on the SPR technology that normally enables binding measurements between immobilized receptor molecules and soluble ligands. […] In the example presented herein, the polymer was immobilized onto the sensor chip and bacteria were injected over the polymer-bound surface and their binding monitored in real-time. […]

| Compound | Bound E. coli (CFU/mg resin) (E. coli [1]) | MIC (μM) Sa (S. aureus; resin-free polymer) [µM] | MIC (μM) Ec (E. coli [2]; resin-free polymer) [µM] | MIC (μM) Pa (P. aeruginosa; resin-free polymer) [µM] | MIC (μM) Bc (B. cereus; resin-free polymer) [µM] | ACN (%) at which the polymer was eluted (estimated hydrophobicity) [3] [%] | MIC (μM) Sa (S. aureus) [µM] | MIC (μM) Ec (E. coli [2]) [µM] | MIC (μM) Pa (P. aeruginosa) [µM] | MIC (μM) Bc (B. cereus) [µM] | further results |
| --- | --- | --- | --- | --- | --- | --- | --- | --- | --- | --- | --- |
| CCCCCCCCCCCC(=O)NC(CCCCN)C(=O)NCCCCCCCC(=O)NC(CCCCN)C(=O)NCCCCCCCC(=O)NC(CCCCN)C(=O)NCCCCCCCC(=O)NC(CCCCN)C(=O)NCCCCCCCC(=O)NC(CCCCN)C(=O)NCCCCCCCC(=O)NC(CCCCN)C(=O)NCCCCCCCC(=O)NC(CCCCN)C(=O)NCCCCCCCC(=O)NC(CCCCN)C(N)=O (stereo not shown) [C12K(NC8K)7NH2] | 1 ± 0.5 × 10^3 CFU/mg resin | 50 (≈ 111 µg/mL) | 3.1 (≈ 6.86 µg/mL) | 6.2 (≈ 13.7 µg/mL) | 12.5 (≈ 27.7 µg/mL) | 47.5 |  |  |  |  | amount of captured bacteria (E. coli [1]; polymer-loaded resin beads exposed to E. coli): approximately 10^3 CFUs |
| NCCCC[C@H](NC(=O)CCCCCCCNC(=O)[C@H](CCCCN)NC(=O)CCCCCCCNC(=O)[C@H](CCCCN)NC(=O)CCCCCCCNC(=O)[C@H](CCCCN)NC(=O)CCCCCCCNC(=O)[C@H](CCCCN)NC(=O)CCCCCCCNC(=O)[C@H](CCCCN)NC(=O)CCCCCCCNC(=O)[C@H](CCCCN)NC(=O)CCCCCCCNC(=O)[C@@H](N)CCCCN)C(N)=O [K(NC8K)7NH2] | 2 ± 0.6 × 10^2 CFU/mg resin |  |  |  |  | 34 | >50 | >50 | >50 | >50 |  |
| NCCCC[C@H](NC(=O)CCCCCCCCCCCNC(=O)[C@H](CCCCN)NC(=O)CCCCCCCCCCCNC(=O)[C@H](CCCCN)NC(=O)CCCCCCCCCCCNC(=O)[C@H](CCCCN)NC(=O)CCCCCCCCCCCNC(=O)[C@H](CCCCN)NC(=O)CCCCCCCCCCCNC(=O)[C@H](CCCCN)NC(=O)CCCCCCCCCCCNC(=O)[C@H](CCCCN)NC(=O)CCCCCCCCCCCNC(=O)[C@@H](N)CCCCN)C(N)=O [K(NC12K)7NH2] |  |  |  |  |  |  | >50 | >50 | >50 | >50 | fraction of dead bacteria (GFP-expressing E. coli; polymer-captured bacteria, did not exceed control suspension): up to 12%; viability of polymer-captured bacteria (GFP-expressing E. coli; propidium iodide exclusion): most polymer-captured bacteria were alive; stability of the polymer after repeated use [4]: remained unchanged; MIC (bacteria): more than 50 μM; viable bacteria on the filtered and plated beads (E. coli [5]): remained alive |
| H-KKKKKKKK-NH2 [Polymer K8NH2, reference compound] | 9 ± 1 × 10^2 CFU/mg resin | >50 | >50 | >50 | >50 | 20 |  |  |  |  |  |
| H-KKKKKKKKKKKKKKK-NH2 [Polymer K15NH2, reference compound] | 1 ± 0.6 × 10^3 CFU/mg resin | >50 | >50 | >50 | >50 | 22 |  |  |  |  | fold less efficient than the K(NC12K)7NH2-coated chip (E. coli [6]): more than 100 fold; stability of the polymer after repeated use ([4]; 10 cycles of bacterial binding and release with 70% ethanol): deteriorated over time |
| dermaseptin [reference compound] |  |  |  |  |  |  |  |  |  |  | fraction of dead bacteria upon exposure (GFP-expressing E. coli; polymer-bound bacteria exposed 15 minutes at 12.5 μM): significantly increased |
